These results are taken from patent publication US4337272A, “Amino-ethanol derivatives” (Valeas S. R. L. Industria Chimica E Farmaceutica, priority 1975, dated 1982).

The nature of series [1]: Acute toxicity LD50 (Litchfield and Wilcoxon). As to conditions: in vivo.
The subject of series [2] is bronchospasm induced by Acetilcholine in conscious guinea pig. Description: Prevention of acetylcholine-induced bronchospasm in conscious guinea pig by inhalation (Armitage method).
Series [3] relates to Guinea Pig airway constriction. As to conditions: i.v.; literature (Duhault et al.); cited from earlier work.

Structures can show the parent of a compound that is named as a salt.

One may read the LD50 as the dose expected to kill half of the subjects tested. In the case of `CC(C)NCC(O)c1cc(O)cc(O)c1` (centres unmarked) [Orciprenaline, reference compound], the LD50 in series [1] turned out to be 380 mg/kg. Further, in series [2], the “time before sign of dispnea (mean)” value worked out at 502 ± 67 s. On to `Cn1c(=O)c2[nH]cnc2n(C)c1=O` [Theophylline], for which the “active dose in the experimental bronchospasm according to Konzett-Rossler” value in series [3] is 25 mg/kg.

In turn, `COc1ccc(CC(C)NCC(O)c2cc(N)cc(CO)c2)cc1` (centres unmarked) [VAL 5000/PM, 1-(5-amino-3 hydroxymethyl) phenyl-2-(1 p-methoxyphenyl-2-propylamino)ethanol dihydrochloride] came in with an LD50 in series [1] of 295 mg/kg. Besides, the “time before sign of dispnea (mean)” value in series [2] came out at 475 ± 60 s.
